Structures can show the parent of a compound that is named as a salt. Where two headings read alike, the source gives them in different places.
Assay: Example 2: phase 1 crossover 3×3 study, fixed kilocalorie meal at 20% and 50% fat, single-dose pharmacokinetics of nelfinavir 250 mg tablets
Assay type: in vivo, human (normal, healthy volunteers)
Conditions: for AUC / AUC(0-inf) / Cmax / AUC(0-t) / half-life / Tmax: human, plasma, oral, 1250 mg; for AUC: read-out: Nelfinavir AUC24; for AUC(0-t): read-out: AUC(0-tlqc), least-squares mean
Experimental: A study was conducted as a phase 1, randomized, open-label, crossover 3×3 study, designed to evaluate the impact of a fixed kilocalorie meal at 20% and 50% fat content on single-dose pharmacokinetic parameters of the nelfinavir 250 mg tablet formulation in normal, healthy volunteers. Subjects were dosed with 1250 mg of nelfinavir 3 times at one-week intervals and 24-hour PK profiles were collected following each of the doses. Each subject was assigned three meals with different fat contents prior to dosing (fasting, 500kcal with 20% fat, 500 kcal with 50% fat) using a Latin square design. Twenty-four subjects entered the study and twenty-two subjects completed it. Each subject received the following treatment in random order on Days 1, 8 and 15: 5×250 mg nelfinavir tablets with fasting; 5×250 mg nelfinavir tablets, with a meal comprising 500Kcal/20% fat; and 5×250 mg nelfinavir tablets with a meal having 500 Kcal/50% fat. The moderate calorie/low fat meal consisted of 500 Kcal with 20% fat (11.3 grams of fat). The moderate calorie/high fat meal consisted of 500 Kcal with 50% fat (27.8 grams of fat). Subjects were administered nelfinavir 1250-mg (five 250-mg tablets) on the morning of the pharmacokinetic evaluations. The nelfinavir terminal half-life (t½) in plasma is typically 3.5 to 5 hours. […] Subjects participated on an outpatient basis; however, subjects were admitted to the in-patient facility the evening prior to each PK evaluation and remained in the in-patient facility for approximately 16 hours post-dosing. The subjects returned the next morning (8 hours later) for their last 24 hr. pharmacokinetic blood draw. All pharmacokinetic evaluations were performed in the in-patient facility. Blood samples were collected and analyzed for plasma concentrations of nelfinavir and M8. For the fasting evaluation, subjects were required to complete an overnight fast of at least 10 hours prior to dosing in the morning. For the fed PK evaluations, subjects were required to complete an overnight fast of at least 10 hours, prior to receiving the protocol-specific standardized breakfast meal. Subjects were given 30 minutes to complete their standardized breakfast meal. Dosing was performed in the morning, immediately following the subject's completion of the standardized breakfast meal and after the subject's predose PK specimen had been collected. Subjects could not ingest water 1 hour prior to or 1 hour after dosing. A standardized lunch was given at least 4 hours after the morning dose and a standardized dinner was given at least 10 hours after the morning dose. Actual sampling times were used for all data evaluation. Mean Cmax and AUC values were calculated as the antilogs of least-squares mean log-transformed values (analogous to geometric means). Ratios and confidence intervals for Cmax and AUC values are also based on log-transformed values. Mean values for all other pharmacokinetic parameters are least-squares means. Ratios and confidence intervals for these parameters are based on untransformed values. Blood samples, 5 mL each, were collected as in Example 1. The timing of each sample collection was as follows: Predose and at 0.5, 1, 2, 3, 4, 6, 8, 12, 16 and 24 hours postdose on Days 1, 8, and 15. All blood samples were kept at […] (using either wet ice or cryoblock) until centrifugation. Blood samples were centrifuged within 1 hour of collection, at 3000 rpm (approximately 2619×g) for 15 minutes, to separate the plasma. The plasma samples were split evenly into 2 aliquots and stored in appropriately labeled polypropylene transport tubes. Plasma was stored frozen at […] or lower until analysis. Pharmacokinetic parameter values were calculated from plasma nelfinavir and M8 concentration-time data using standard noncompartmental pharmacokinetic methods as in Example 1. Plasma concentrations of nelfinavir and M8 were measured by validated high-performance liquid chromatography (HPLC) methods. […]

[1] = Kcal/Fat % 500/20% relative to fasting
[2] = Kcal/Fat % 500/50% relative to fasting
[3] = nelfinavir, moderate calorie/high fat meal (500 Kcal/50% fat) vs fasting
[4] = nelfinavir, moderate calorie/low fat meal (500 Kcal/20% fat) vs fasting

Cc1c(O)cccc1C(=O)N[C@@H](CSc1ccccc1)[C@H](O)CN1C[C@H]2CCCC[C@H]2C[C@H]1C(=O)NC(C)(C)C (relative stereo) [nelfinavir, [3S-(3R*, 4aR*, 8aR*, 2′S*, 3′S*)]-2-[2′ hydroxy-3′-phenylthiomethyl-4′-aza-5′-oxo-5′-(2″-methyl-3″-hydroxy-phenyl)pentyl]-decahydroiso-quinoline-3-N-t-butylcarboxamide methanesulfonic acid salt]
Nelfinavir AUC24 (×fasting) [1]: 3.2 X
Nelfinavir AUC∞ (×fasting) [1]: 3.0 X
Nelfinavir Cmax (×fasting) [1]: 2.5 X
Nelfinavir AUC24 (×fasting) [2]: 5.2 X
Nelfinavir AUC∞ (×fasting) [2]: 5.1 X
Nelfinavir Cmax (×fasting) [2]: 3.8 X
AUC (1250 mg single dose, fasting): 10000 ng·h/mL
AUC(0-inf) (1250 mg single dose, fasting, read-out: Nelfinavir AUC∞): 10700 ng·h/mL
Cmax (1250 mg single dose, fasting, read-out: Nelfinavir Cmax): 1630 ng/mL
AUC (Kcal/Fat % 500/20%): 32600 ng·h/mL
AUC(0-inf) (Kcal/Fat % 500/20%, read-out: Nelfinavir AUC∞): 32700 ng·h/mL
Cmax (Kcal/Fat % 500/20%, read-out: Nelfinavir Cmax): 4000 ng/mL
AUC (Kcal/Fat % 500/50%): 52600 ng·h/mL
AUC(0-inf) (Kcal/Fat % 500/50%, read-out: Nelfinavir AUC∞): 54600 ng·h/mL
Cmax (Kcal/Fat % 500/50%, read-out: Nelfinavir Cmax): 6200 ng/mL
AUC(0-t) (nelfinavir, 5×250-mg tablets during moderate calorie/high fat meal (500 Kcal/50% fat)): 52600 ng·h/mL
AUC(0-inf) (nelfinavir, 5×250-mg tablets during moderate calorie/high fat meal (500 Kcal/50% fat), read-out: AUC(0-∞), least-squares mean): 54600 ng·h/mL
Cmax (nelfinavir, 5×250-mg tablets during moderate calorie/high fat meal (500 Kcal/50% fat), read-out: Cmax, least-squares mean): 6160 ng/mL
half-life (nelfinavir, 5×250-mg tablets during moderate calorie/high fat meal (500 Kcal/50% fat), read-out: t1/2 (terminal half-life), least-squares mean (converted)): 3.43 h
Tmax (nelfinavir, 5×250-mg tablets during moderate calorie/high fat meal (500 Kcal/50% fat), read-out: tmax, least-squares mean): 4.48 h
AUC(0-t) (nelfinavir, 5×250-mg tablets during moderate calorie/low fat meal (500 Kcal/20% fat)): 32600 ng·h/mL
AUC(0-inf) (nelfinavir, 5×250-mg tablets during moderate calorie/low fat meal (500 Kcal/20% fat), read-out: AUC(0-∞), least-squares mean): 32700 ng·h/mL
Cmax (nelfinavir, 5×250-mg tablets during moderate calorie/low fat meal (500 Kcal/20% fat), read-out: Cmax, least-squares mean): 4040 ng/mL
half-life (nelfinavir, 5×250-mg tablets during moderate calorie/low fat meal (500 Kcal/20% fat), read-out: t1/2 (terminal half-life), least-squares mean (converted)): 3.08 h
Tmax (nelfinavir, 5×250-mg tablets during moderate calorie/low fat meal (500 Kcal/20% fat), read-out: tmax, least-squares mean): 4.19 h
AUC(0-t) (nelfinavir, 5×250-mg tablets single dose, fasting (reference)): 10000 ng·h/mL
AUC(0-inf) (nelfinavir, 5×250-mg tablets single dose, fasting (reference), read-out: AUC(0-∞), least-squares mean): 10700 ng·h/mL
Cmax (nelfinavir, 5×250-mg tablets single dose, fasting (reference), read-out: Cmax, least-squares mean): 1630 ng/mL
half-life (nelfinavir, 5×250-mg tablets single dose, fasting (reference), read-out: t1/2 (terminal half-life), least-squares mean (converted)): 4.1 h
Tmax (nelfinavir, 5×250-mg tablets single dose, fasting (reference), read-out: tmax, least-squares mean): 2.42 h
half-life (nelfinavir, fasting subjects and test meals, similar, read-out: elimination t½, average (converted)): ~4 h
Tmax (nelfinavir, meal of 20% fat content (500 kcal), read-out: mean tmax longer relative to fasting subjects): ~2 h
Tmax (nelfinavir, meal of 50% fat content (500 kcal), read-out: mean tmax longer relative to fasting subjects): ~2 h
AUC increase compared to the fasting AUC (nelfinavir, 500 Kcal, 50% fat breakfast): 5.2 fold
AUC increase compared to the fasting AUC (nelfinavir, 500 kcal, 20% fat breakfast): 3.2 fold
% coefficient of variation (CV) for AUC(0-∞) (nelfinavir, fasting subjects): 75%
bioavailability higher relative to fasting subjects, based on AUC(0-∞) (nelfinavir, meal containing 20% fat (500 kcal)): approximately 3 fold
bioavailability higher relative to fasting subjects, based on AUC(0-∞) (nelfinavir, meal containing 50% fat (500 kcal)): ~5 fold
mean Cmax higher relative to fasting (nelfinavir, meal of 20% fat content (500 kcal)): approximately 2.5 fold
mean Cmax higher relative to fasting (nelfinavir, meal of 50% fat content (500 kcal)): ~3.8 fold
AUC(0-tlqc) ratio (100% × test/reference) [3]: 524%
AUC(0-∞) ratio (100% × test/reference) [3]: 508%
Cmax ratio (100% × test/reference) [3]: 378%
t1/2 ratio (100% × test/reference) [3]: 83.7%
tmax ratio (100% × test/reference) [3]: 186%
AUC(0-tlqc) ratio (100% × test/reference) [4]: 325%
AUC(0-∞) ratio (100% × test/reference) [4]: 305%
Cmax ratio (100% × test/reference) [4]: 248%
t1/2 ratio (100% × test/reference) [4]: 75.0%
tmax ratio (100% × test/reference) [4]: 173%
% coefficient of variation (CV) for AUC(0-∞) (nelfinavir, test meal containing 20% fat): 48%
% coefficient of variation (CV) for AUC(0-∞) (nelfinavir, test meal containing 50% fat): 43%
